Reference: ChEMBL document CHEMBL4340549, “Design, synthesis and biological evaluation of isochroman-4-one hybrids bearing piperazine moiety as antihypertensive agent candidates” (Bioorg Med Chem, 2019)
Values belong to the molecule of their own block, whether it stands above or below them.

Experiments:
Thoracic aorta [1] = experiment: Vasodilatory activity in Sprague-Dawley rat thoracic aorta assessed as inhibition of noradrenaline-induced contractions at 10 uM relative to untreated control; format: functional
Thoracic aorta [2] = experiment: Vasodilatory activity in Sprague-Dawley rat thoracic aorta assessed as inhibition of noradrenaline-induced contractions at 100 uM relative to untreated control; format: functional
Rattus norvegicus [3] = experiment: Effect on heart rate in spontaneously hypertensive rat assessed as heart rate level at 80 mg/kg, po measured after 6 hrs by tail-cuff method (reference value: 411.12 +/- 19.1 bpm); format: ADME, organism-based; settings: in vivo
Rattus norvegicus [4] = experiment: Antihypertensive activity in spontaneously hypertensive rat assessed as diastolic arterial pressure at 80 mg/kg, po measured after 6 hrs by tail-cuff method (reference value: 137.54 +/- 9.2 mmHg); format: functional
Rattus norvegicus [5] = experiment: Antihypertensive activity in spontaneously hypertensive rat assessed as mean arterial pressure at 80 mg/kg, po measured after 6 hrs by tail-cuff method (reference value: 151.48 +/- 12.24 mmHg); format: functional
[6] = biological target: T1, Alpha-1D adrenergic receptor (Rattus norvegicus, UniProt P23944); experiment: Antagonist activity at alpha-1D adrenergic receptor in SPF rat vas thoracic aorta assessed as inhibition of noradrenaline-induced contractions; settings: read-out: pA2 (converted)
T1 sequence (P23944 whole entry): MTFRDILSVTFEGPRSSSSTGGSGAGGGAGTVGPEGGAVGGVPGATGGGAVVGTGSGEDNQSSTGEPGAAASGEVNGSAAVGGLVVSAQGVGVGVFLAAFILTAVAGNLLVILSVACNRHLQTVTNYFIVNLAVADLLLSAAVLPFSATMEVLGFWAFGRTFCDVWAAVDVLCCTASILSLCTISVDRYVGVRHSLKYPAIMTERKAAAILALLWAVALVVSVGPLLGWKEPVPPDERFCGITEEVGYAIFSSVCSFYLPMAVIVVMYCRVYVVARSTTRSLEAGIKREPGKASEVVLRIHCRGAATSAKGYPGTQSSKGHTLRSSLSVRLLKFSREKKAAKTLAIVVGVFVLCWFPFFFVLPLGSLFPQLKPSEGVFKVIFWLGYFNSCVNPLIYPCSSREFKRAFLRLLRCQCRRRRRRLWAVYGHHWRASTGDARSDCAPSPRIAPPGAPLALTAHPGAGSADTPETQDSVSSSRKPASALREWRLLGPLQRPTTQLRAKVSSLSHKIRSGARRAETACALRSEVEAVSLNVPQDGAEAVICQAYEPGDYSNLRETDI

Rattus norvegicus [7] = experiment: Antihypertensive activity in spontaneously hypertensive rat assessed as systolic arterial pressure at 80 mg/kg, po measured after 0 hrs by tail-cuff method (reference value: 186.10 +/- 4.55 mmHg); format: functional
Rattus norvegicus [8] = experiment: Antihypertensive activity in spontaneously hypertensive rat assessed as diastolic arterial pressure at 80 mg/kg, po measured after 0 hrs by tail-cuff method (reference value: 149.50 +/- 5.4 mmHg); format: functional
Rattus norvegicus [9] = experiment: Antihypertensive activity in spontaneously hypertensive rat assessed as mean arterial pressure at 80 mg/kg, po measured after 0 hrs by tail-cuff method (reference value: 161.70 +/- 5.12 mmHg); format: functional
Rattus norvegicus [10] = experiment: Effect on heart rate in spontaneously hypertensive rat assessed as heart rate level at 80 mg/kg, po measured after 0 hrs by tail-cuff method (reference value: 413.17 +/- 10.5 bpm); format: ADME, organism-based; settings: in vivo
Rattus norvegicus [11] = experiment: Antihypertensive activity in spontaneously hypertensive rat assessed as systolic arterial pressure at 80 mg/kg, po measured after 1 hr by tail-cuff method (reference value: 185.35 +/- 10.30 mmHg); format: functional
Rattus norvegicus [12] = experiment: Antihypertensive activity in spontaneously hypertensive rat assessed as diastolic arterial pressure at 80 mg/kg, po measured after 1 hr by tail-cuff method (reference value: 147.33 +/- 9.8 mmHg); format: functional
Rattus norvegicus [13] = experiment: Antihypertensive activity in spontaneously hypertensive rat assessed as mean arterial pressure at 80 mg/kg, po measured after 1 hr by tail-cuff method (reference value: 160 +/- 9.97 mmHg); format: functional
Rattus norvegicus [14] = experiment: Effect on heart rate in spontaneously hypertensive rat assessed as heart rate level at 80 mg/kg, po measured after 1 hr by tail-cuff method (reference value: 415.25 +/- 14.7 bpm); format: ADME, organism-based; settings: in vivo
Rattus norvegicus [15] = experiment: Antihypertensive activity in spontaneously hypertensive rat assessed as systolic arterial pressure at 80 mg/kg, po measured after 2 hrs by tail-cuff method (reference value: 189.20 +/- 12.31 mmHg); format: functional
Rattus norvegicus [16] = experiment: Antihypertensive activity in spontaneously hypertensive rat assessed as diastolic arterial pressure at 80 mg/kg, po measured after 2 hrs by tail-cuff method (reference value: 149.90 +/- 6 mmHg); format: functional
Rattus norvegicus [17] = experiment: Antihypertensive activity in spontaneously hypertensive rat assessed as mean arterial pressure at 80 mg/kg, po measured after 2 hrs by tail-cuff method (reference value: 163 +/- 8.1 mmHg); format: functional
Rattus norvegicus [18] = experiment: Effect on heart rate in spontaneously hypertensive rat assessed as heart rate level at 80 mg/kg, po measured after 2 hrs by tail-cuff method (reference value: 413.2 +/- 15.2 bpm); format: ADME, organism-based; settings: in vivo
Rattus norvegicus [19] = experiment: Antihypertensive activity in spontaneously hypertensive rat assessed as systolic arterial pressure at 80 mg/kg, po measured after 4 hrs by tail-cuff method (reference value: 178.66 +/- 17.18 mmHg); format: functional
Rattus norvegicus [20] = experiment: Antihypertensive activity in spontaneously hypertensive rat assessed as diastolic arterial pressure at 80 mg/kg, po measured after 4 hrs by tail-cuff method (reference value: 136.12 +/- 5.3 mmHg); format: functional
Rattus norvegicus [21] = experiment: Antihypertensive activity in spontaneously hypertensive rat assessed as mean arterial pressure at 80 mg/kg, po measured after 4 hrs by tail-cuff method (reference value: 150.30 +/- 9.26 mmHg); format: functional
Rattus norvegicus [22] = experiment: Effect on heart rate in spontaneously hypertensive rat assessed as heart rate level at 80 mg/kg, po measured after 4 hrs by tail-cuff method (reference value: 410.80 +/- 17.4 bpm); format: ADME, organism-based; settings: in vivo
Rattus norvegicus [23] = experiment: Antihypertensive activity in spontaneously hypertensive rat assessed as systolic arterial pressure at 80 mg/kg, po measured after 6 hrs by tail-cuff method (reference value: 179.36 +/- 18.33 mmHg); format: functional
Rattus norvegicus [24] = experiment: Antihypertensive activity in spontaneously hypertensive rat assessed as systolic arterial pressure at 80 mg/kg, po measured after 8 hrs by tail-cuff method (reference value: 179.42 +/- 13.70 mmHg); format: functional
Rattus norvegicus [25] = experiment: Antihypertensive activity in spontaneously hypertensive rat assessed as diastolic arterial pressure at 80 mg/kg, po measured after 8 hrs by tail-cuff method (reference value: 140.61 +/- 10.3 mmHg); format: functional
Rattus norvegicus [26] = experiment: Antihypertensive activity in spontaneously hypertensive rat assessed as mean arterial pressure at 80 mg/kg, po measured after 8 hrs by tail-cuff method (reference value: 153.55 +/- 11.43 mmHg); format: functional
Rattus norvegicus [27] = experiment: Effect on heart rate in spontaneously hypertensive rat assessed as heart rate level at 80 mg/kg, po measured after 8 hrs by tail-cuff method (reference value: 412.77 +/- 11.3 bpm); format: ADME, organism-based; settings: in vivo
Rattus norvegicus [28] = experiment: Antihypertensive activity in spontaneously hypertensive rat assessed as reduction in mean arterial pressure at 80 mg/kg, po measured after 2 hrs by tail-cuff method; format: functional; design: scale not given: the % may be the effect or the level left

SMILES: COc1ccccc1N1CCN(CC(O)COc2c(OC)ccc3c2COC(C)C3=O)CC1 (stereo not drawn)
inhibition at 10 µM (Thoracic aorta [1]): 13.6%
inhibition at 100 µM (Thoracic aorta [2]): 24.4%

Kb [6]: 143 nM
SMILES: COc1ccccc1N1CCN(CC(O)COc2cccc3ccccc23)CC1 (stereo not drawn) [NAFTOPIDIL]
Activity (Rattus norvegicus [3]): 411.19 bpm
Activity (Rattus norvegicus [4]): 139.57 mmHg
Activity (Rattus norvegicus [5]): 145.79 mmHg
inhibition at 10 µM (Thoracic aorta [1]): 47.5%
inhibition at 100 µM (Thoracic aorta [2]): 65.2%
Activity (Rattus norvegicus [7]): 181.92 mmHg
Activity (Rattus norvegicus [8]): 152.14 mmHg
Activity (Rattus norvegicus [9]): 162.07 mmHg
Activity (Rattus norvegicus [10]): 415.15 bpm
Activity (Rattus norvegicus [11]): 161.36 mmHg
Activity (Rattus norvegicus [12]): 140.19 mmHg
Activity (Rattus norvegicus [13]): 147.25 mmHg
Activity (Rattus norvegicus [14]): 412.14 bpm
Activity (Rattus norvegicus [15]): 148.13 mmHg
Activity (Rattus norvegicus [16]): 129.85 mmHg
Activity (Rattus norvegicus [17]): 135.94 mmHg
Activity (Rattus norvegicus [18]): 406.12 bpm
Activity (Rattus norvegicus [19]): 153.65 mmHg
Activity (Rattus norvegicus [20]): 134.31 mmHg
Activity (Rattus norvegicus [21]): 140.76 mmHg
Activity (Rattus norvegicus [22]): 409.22 bpm
Activity (Rattus norvegicus [23]): 158.22 mmHg
Activity (Rattus norvegicus [24]): 170.5 mmHg
Activity (Rattus norvegicus [25]): 143.06 mmHg
Activity (Rattus norvegicus [26]): 152.21 mmHg
Activity (Rattus norvegicus [27]): 417.25 bpm
Activity (Rattus norvegicus [28]): 16.1%

Kb [6]: 621 nM
SMILES: COc1cc2c(cc1OCC(O)CN1CCN(c3ccccc3)CC1)COC(C)C2=O (stereo not drawn)
inhibition at 10 µM (Thoracic aorta [1]): 39.2%
inhibition at 100 µM (Thoracic aorta [2]): 48.1%

Kb [6]: 2200 nM
SMILES: COc1cc2c(cc1OCC(O)CN1CCN(c3ccccc3OC)CC1)COC(C)C2=O (stereo not drawn)
inhibition at 10 µM (Thoracic aorta [1]): 41.7%
inhibition at 100 µM (Thoracic aorta [2]): 50.4%

SMILES: COc1cc2c(cc1OCC(O)CN1CCN(c3ccccc3)CC1)C(=O)C(C)OC2 (stereo not drawn)
inhibition at 10 µM (Thoracic aorta [1]): 28.6%
inhibition at 100 µM (Thoracic aorta [2]): 46.4%

SMILES: COc1cc2c(cc1OCC(O)CN1CCN(C(=O)c3ccco3)CC1)COC(C)C2=O (stereo not drawn)
inhibition at 10 µM (Thoracic aorta [1]): 17.8%
inhibition at 100 µM (Thoracic aorta [2]): 22.8%

SMILES: COc1ccc2c(c1OCC(O)CN1CCN(C(=O)c3ccco3)CC1)COC(C)C2=O (stereo not drawn)
inhibition at 10 µM (Thoracic aorta [1]): 20.8%
inhibition at 100 µM (Thoracic aorta [2]): 31.9%

Kb [6]: 485 nM
SMILES: CCOc1ccccc1N1CCN(CC(O)COc2cc3c(cc2OC)COC(C)C3=O)CC1 (stereo not drawn)
inhibition at 10 µM (Thoracic aorta [1]): 25.4%
inhibition at 100 µM (Thoracic aorta [2]): 55.3%

Kb [6]: 340 nM
SMILES: COc1ccc2c(c1OCC(O)CN1CCN(C(=O)C3CCCO3)CC1)COC(C)C2=O (stereo not drawn)
inhibition at 10 µM (Thoracic aorta [1]): 31.4%
inhibition at 100 µM (Thoracic aorta [2]): 45.1%

SMILES: CCOc1ccccc1N1CCN(CC(O)COc2c(OC)ccc3c2COC(C)C3=O)CC1 (stereo not drawn)
inhibition at 10 µM (Thoracic aorta [1]): 23.1%
inhibition at 100 µM (Thoracic aorta [2]): 36.1%

Kb [6]: 1550 nM
SMILES: COc1cc2c(cc1OCC(O)CN1CCN(C(=O)c3ccco3)CC1)C(=O)C(C)OC2 (stereo not drawn)
inhibition at 10 µM (Thoracic aorta [1]): 33.4%
inhibition at 100 µM (Thoracic aorta [2]): 44.9%

SMILES: COc1cc2c(cc1OCC(O)CN1CCN(C(=O)C3CCCO3)CC1)COC(C)C2=O (stereo not drawn)
inhibition at 10 µM (Thoracic aorta [1]): 33.9%
inhibition at 100 µM (Thoracic aorta [2]): 40.1%

SMILES: COc1cc2c(cc1OCC(O)CN1CCN(c3ccccc3Cl)CC1)C(=O)C(C)OC2 (stereo not drawn)
inhibition at 10 µM (Thoracic aorta [1]): 30.2%
inhibition at 100 µM (Thoracic aorta [2]): 42.4%

Kb [6]: 296 nM
SMILES: COc1ccc2c(c1OCC(O)CN1CCN(c3ccccc3)CC1)COC(C)C2=O (stereo not drawn)
inhibition at 10 µM (Thoracic aorta [1]): 37.8%
inhibition at 100 µM (Thoracic aorta [2]): 59.7%

SMILES: COc1cc2c(cc1OCC(O)CN1CCN(c3ccccc3Cl)CC1)COC(C)C2=O (stereo not drawn)
inhibition at 10 µM (Thoracic aorta [1]): 27%
inhibition at 100 µM (Thoracic aorta [2]): 32.4%

SMILES: COc1cc2c(cc1OCC(O)CN1CCN(c3ccccc3OC)CC1)C(=O)C(C)OC2 (stereo not drawn)
inhibition at 10 µM (Thoracic aorta [1]): 23.1%
inhibition at 100 µM (Thoracic aorta [2]): 44.6%

SMILES: CCOc1ccccc1N1CCN(CC(O)COc2cc3c(cc2OC)C(=O)C(C)OC3)CC1 (stereo not drawn)
inhibition at 10 µM (Thoracic aorta [1]): 11.6%
inhibition at 100 µM (Thoracic aorta [2]): 23.3%

SMILES: COc1ccc2c(c1OCC(O)CN1CCN(c3ccccc3Cl)CC1)COC(C)C2=O (stereo not drawn)
inhibition at 10 µM (Thoracic aorta [1]): 18.2%
inhibition at 100 µM (Thoracic aorta [2]): 29.1%
